Assay results from patent publication US20230120597A1, “CO-AGONISTS AT GLP-1 AND GIP RECEPTORS SUITABLE FOR ORAL DELIVERY” (Novo Nordisk A/S, priority 2020, published 2023).
pEC50: −log10 of the molar value. Read-outs that look alike come from different tables or passages of the source. Starred links: 1 amine or outer side, 2 acyl side, 3 side chain; linkers in the order of their positions; H or OH if unused. Non-standard residues stand in square brackets, D forms with d. Residues, ends and D or L forms follow the SMILES beside them. Groups on a side chain read outwards from the residue. *: point of attachment. C18 diacid = O=C(O)CCCCCCCCCCCCCCCCC(=O)*; γGlu = O=C(O)[C@H](CCC(=O)[*:2])N[*:1]; εLys = N[C@@H](CCCCN[*:1])C(=O)[*:2]; Aib = CC(C)(N)C(=O)O

Experiments:
human GLP-1 receptor = molecular target: T1, human GLP-1 receptor (Homo sapiens, UniProt P43220); assay: In vitro functional potency, CRE luciferase reporter gene assay, whole BHK cells expressing hGLP-1R; assay type: cell-based; conditions: BHK CRE luc2P hGLP-1R cells
T1 construct: expressed in transfected cells; host or cells: BHK (parent line BHKTS13), clone BHK CRE luc2P hGLP-1R
Protocol: (§1) The in vitro functional potency is the measure of target receptor activation in a whole cell assay.
(§2) In vitro functional potency was determined by measuring the response of the target receptor in a reporter gene assay in individual cell lines. […] When the respective receptor is activated, it results in the production of cAMP, which in turn results in expression of the luciferase protein. When assay incubation is completed, luciferase substrate (luciferin) is added resulting in the enzymatic conversion of luciferin to oxyluciferin and producing bioluminescence. The luminescence is measured as the readout for the assay.
(§3) The cells lines used in these assays were BHK cells with BHKTS13 as a parent cell line. The cell lines were derived from a clone containing the CRE luciferase element and were established by further transfection with the respective human receptor to obtain the relevant cell line: BHK CRE luc2P hGLP-1R or BHK CRE luc2P hGIPR. The cells were cultured at 37° C. with 5% CO2 in Cell Culture Medium. They were aliquoted and stored in liquid nitrogen. The cells were kept in continuous culture and were seeded out the day before each assay.
(§4) GLP-1R Cell Culture Medium consisted of DMEM medium with 10% FBS, 500 μg/mL G418, and 300 μg/mL hygromycin. GIPR Cell Culture Medium consisted of DMEM medium with 10% FBS, 400 μg/mL G418, and 300 μg/mL hygromycin. Assay Buffer consisted of DMEM w/o phenol red, 10 mM Hepes, 1× Glutamax. 1% ovalbumin, and 0.1% Pluronic F-68 with the addition of HSA at twice the final assay concentration.
(§5) Procedure • 1) Cells were plated at 5000 cells/well and incubated overnight in the assay plate. • 2) Cells were washed once in DPBS. • 3) Stocks of the test compounds and reference compounds in concentrations ranging from […] were diluted 1:150 in Assay Buffer. Compounds were then diluted 1:10 in column 1 of a 96 deep well dilution plate and then carried across the row creating a 3.5 fold, 12 point dilution curve. • 4) Assay Buffer (50 μl aliquot) with or without HSA was added to each well in the assay plate. • 5) A 50 μl aliquot of compound or blank was transferred from the dilution plate to the assay plate containing the Assay Buffer with or without HSA. • 6) The assay plate was incubated for 3 h in a 5% CO2 incubator at 37° C. • 7) The cells were washed once with DPBS. • 8) A 100 μl aliquot of DPBS was added to each well of the assay plate. • 9) A 100 μl aliquot of steadylite plus reagent (light sensitive) was added to each well of the assay plate. • 10) Each assay plate was covered with aluminum foil to protect it from light and shaken at 250 RPM for 30 min at room temperature. • 11) Each assay plate was read in a microtiter plate reader.
(§6) The data from the microtiter plate reader was first regressed in an Excel in order to calculate the x-axis, log scale concentrations based on the individual test compound's stock concentration and the dilutions of the assay. […] The software performs a non-linear regression (log(agonist) vs response). A minimum of two replicates was measured for each sample. The reported values are averages of the replicates.

human GIP receptor = molecular target: T2, human GIP receptor (Homo sapiens, UniProt P48546); assay: In vitro functional potency, CRE luciferase reporter gene assay, whole BHK cells expressing hGIPR; assay type: cell-based; conditions: BHK CRE luc2P hGIPR cells
T2 construct: expressed in transfected cells; host or cells: BHK (parent line BHKTS13), clone BHK CRE luc2P hGIPR
T2 sequence (P48546 22-466): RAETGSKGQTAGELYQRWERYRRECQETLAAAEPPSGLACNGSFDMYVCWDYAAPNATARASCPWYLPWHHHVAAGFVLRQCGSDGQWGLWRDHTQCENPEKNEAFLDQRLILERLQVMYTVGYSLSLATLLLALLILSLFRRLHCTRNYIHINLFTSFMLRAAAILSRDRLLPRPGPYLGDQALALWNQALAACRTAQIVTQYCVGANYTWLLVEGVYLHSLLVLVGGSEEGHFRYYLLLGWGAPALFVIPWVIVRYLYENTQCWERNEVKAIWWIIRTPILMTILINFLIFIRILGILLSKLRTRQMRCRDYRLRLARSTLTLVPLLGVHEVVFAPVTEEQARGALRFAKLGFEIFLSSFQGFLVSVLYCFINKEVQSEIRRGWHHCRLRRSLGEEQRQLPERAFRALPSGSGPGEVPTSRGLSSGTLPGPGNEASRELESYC
Protocol: as §1, §2, §3, §4, §5, §6

[1] = Pharmacokinetic study in dogs, oral dosing of tablet compositions with SNAC; assay type: in vivo, Beagle dogs; conditions: dog, in vivo, po
Protocol: The purpose of this example is to determine the half-life and plasma exposure in vivo of the compounds of the present invention after p.o. administration to beagle dogs, i.e. the terminal half-life and concentration of test substance that reaches circulation with time. This is done in a pharmacokinetic (PK) study, where these parameters of the compound in question are determined. By terminal half-life is generally meant the period of time it takes to halve a certain plasma concentration, measured after the initial distribution phase.
The amount of SNAC in the tablet composition was 100-300 mg, the amount of magnesium stearate in the tablet composition was 7.7 mg, and the target amount of each test substance in the tablet composition was 3-4 mg.
Male beagle dogs, 1-7 years of age and weighing 9-17 kg during the study period, were included in the study. The dogs were dosed in a fasting state. The dogs were group housed in pens (12 hours light: 12 hours dark), and fed individually and restrictedly once daily with Royal Canin Medium Adult dog food (Royal Canin Products, China Branch, or Brogaarden A/S, Denmark). The dogs were used for repeated PK studies with a suitable wash-out period between successive dosing. An appropriate acclimatization period was given prior to initiation of the first PK study. All handling, dosing, and blood sampling of the animals were performed by trained and skilled staff. Before the studies, the dogs were fasted overnight and from 0 to 4 hours after dosing. The dogs were restricted to water 1 hour before dosing until 4 hours after dosing, but otherwise had ad libitum access to water during the whole period.
The compositions were administered by a single oral dosing to the dogs in groups of 6-8 dogs. […] The mouth was then closed, and 10 mL of tap water was given by syringe or gavage to facilitate swallowing of the tablet.
One blood sample was drawn before dosing, and additional samples were drawn at predefined time points after dosing for up to 240 hours, such as up to 10 hours, to adequately cover the full plasma concentration-time absorption profile of the test substance. For each blood sample time point, approximately 0.8 mL of whole blood was collected in a 1.5 mL EDTA-coated tube, which was gently turned to mix the sample with EDTA. Blood samples were collected in EDTA buffer (8 mM) and then centrifuged at 4° C. 2000 g for 10 minutes. Plasma was pipetted into Micronic tubes on dry ice, and kept at −20° C. or lower until analysis. Blood samples were taken as appropriate, for example from a venflon in the cephalic vein in the front leg for the first 2 hours and then with syringe from the jugular vein for the rest of the time points. The first few drops were allowed to drain from the venflon to avoid heparin saline from the venflon in the sample.
All blood samples were collected into test tubes containing EDTA for stabilisation and kept on ice until centrifugation. Plasma was separated from whole blood by centrifugation and the plasma was stored at −20° C. or lower until analysis.
The plasma was analysed for test substance using LC-MS (Liquid Chromatography-Mass Spectrometry) as known to the person skilled in the art. […] RP-HPLC separation was achieved using a linear gradient of 1:1 acetonitrile/methanol in 1% aqueous formic acid using either: a Phenomenex Onyx Monolithic C18 column (50×2.0 mm) and a flow rate of 0.8 mL/min at 30° C.; or an Agilent Poroshell 120 SB-C18 column (50×2.1 mm, 2.7 μm) at a flow rate of 0.4 mL/min at 60° C. The mass spectrometer was operated in either positive ionization SIM mode or positive ionization PRM mode.
For each individual animal, a plasma concentration-time profile was analysed by a non-compartmental model in Pharsight Phoenix WinNonLin ver.

T1 sequence (P43220 24-463): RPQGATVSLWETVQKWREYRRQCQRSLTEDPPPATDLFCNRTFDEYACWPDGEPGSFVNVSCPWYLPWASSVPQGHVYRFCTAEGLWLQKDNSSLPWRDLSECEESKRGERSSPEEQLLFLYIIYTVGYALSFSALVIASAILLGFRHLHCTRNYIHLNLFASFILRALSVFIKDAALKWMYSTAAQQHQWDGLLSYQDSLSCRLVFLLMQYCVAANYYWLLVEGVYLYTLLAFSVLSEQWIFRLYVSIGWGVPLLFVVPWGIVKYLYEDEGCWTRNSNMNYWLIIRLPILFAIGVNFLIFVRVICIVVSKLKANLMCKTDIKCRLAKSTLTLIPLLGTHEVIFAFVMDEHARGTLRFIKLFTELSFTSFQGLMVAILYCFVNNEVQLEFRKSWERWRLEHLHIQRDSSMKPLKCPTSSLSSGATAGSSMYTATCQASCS

CC(C)C[C@H](NC(=O)[C@H](CC(C)C)NC(=O)[C@H](Cc1c[nH]c2ccccc12)NC(=O)[C@H](CC(N)=O)NC(=O)[C@@H](NC(=O)[C@H](Cc1ccccc1)NC(=O)[C@H](C)NC(=O)[C@H](CCC(N)=O)NC(=O)[C@H](C)NC(=O)[C@H](C)NC(=O)[C@H](CCC(N)=O)NC(=O)[C@H](CCCCNC(=O)[C@@H](N)CCCCNC(=O)[C@@H](N)CCCCNC(=O)CC[C@H](NC(=O)CCCCCCCCCCCCCCCCC(=O)O)C(=O)O)NC(=O)[C@H](CCC(=O)O)NC(=O)[C@H](CC(C)C)NC(=O)[C@H](Cc1ccc(O)cc1)NC(=O)[C@H](Cc1ccc(O)cc1)NC(=O)[C@H](CO)NC(=O)[C@H](Cc1ccc(O)cc1)NC(=O)[C@H](CC(=O)O)NC(=O)[C@H](CO)NC(=O)[C@@H](NC(=O)[C@H](Cc1ccccc1)NC(=O)[C@@H](NC(=O)CNC(=O)[C@H](CCC(=O)O)NC(=O)C(C)(C)NC(=O)[C@@H](N)Cc1ccc(O)cc1)[C@@H](C)O)[C@@H](C)O)C(C)C)C(=O)N[C@@H](C)C(=O)NCC(=O)NCC(=O)N1CCC[C@H]1C(=O)N[C@@H](CO)C(=O)N[C@@H](CO)C(=O)NCC(=O)N[C@@H](C)C(=O)N1CCC[C@H]1C(=O)N1CCC[C@H]1C(=O)N1CCC[C@H]1C(=O)N[C@@H](CO)C(N)=O [Compound No. 4] (H-Y[Aib]EGTFTSDYSYYLEK([εLys-εLys-γGlu-C18 diacid])QAAQAFVNWLLAGGPSSGAPPPS-NH2; N-terminus assumed)
pEC50 (human GLP-1 receptor; 0% HSA, read-out: hGLP-1R, CRE Luc 0% HSA EC50): 11.18
pEC50 (human GLP-1 receptor; hGLP-1R, CRE Luc 1% HSA EC50, 1% HSA): 9.31
pEC50 (human GIP receptor; 0% HSA, read-out: hGIPR, CRE Luc 0% HSA EC50): 11.07
pEC50 (human GIP receptor; hGIPR, CRE Luc 1% HSA EC50, 1% HSA): 9.53

CC[C@H](C)[C@H](NC(=O)[C@H](Cc1ccccc1)NC(=O)[C@H](CCC(=O)O)NC(=O)[C@H](CCCNC(=N)N)NC(=O)[C@H](C)NC(=O)[C@H](C)NC(=O)[C@H](CCC(N)=O)NC(=O)[C@H](CCC(=O)O)NC(=O)[C@H](CCC(=O)O)NC(=O)[C@H](CC(C)C)NC(=O)[C@H](CC(C)C)NC(=O)[C@H](CCCCNC(=O)[C@@H](N)CCCCNC(=O)[C@@H](N)CCCCNC(=O)CC[C@H](NC(=O)CCCCCCCCCCCCCCCCC(=O)O)C(=O)O)NC(=O)[C@H](CO)NC(=O)[C@H](Cc1ccc(O)cc1)NC(=O)[C@H](CC(=O)O)NC(=O)[C@H](CO)NC(=O)[C@@H](NC(=O)[C@H](Cc1ccccc1)NC(=O)[C@@H](NC(=O)CNC(=O)[C@H](CCC(=O)O)NC(=O)C(C)(C)NC(=O)[C@@H](N)Cc1ccc(O)cc1)[C@@H](C)O)[C@@H](C)O)C(=O)N[C@@H](CCC(=O)O)C(=O)N[C@@H](Cc1c[nH]c2ccccc12)C(=O)N[C@@H](CC(C)C)C(=O)N[C@@H](CC(C)C)C(=O)N[C@@H](C)C(=O)NCC(=O)NCC(=O)N1CCC[C@H]1C(=O)N[C@@H](CO)C(=O)N[C@@H](CO)C(=O)NCC(=O)N[C@@H](C)C(=O)N1CCC[C@H]1C(=O)N1CCC[C@H]1C(=O)N1CCC[C@H]1C(=O)N[C@@H](CO)C(=O)O [Compound No. 40]
AUC/Dose [1]: 27.0 kg·h/L

CC[C@H](C)[C@H](NC(=O)[C@H](Cc1ccccc1)NC(=O)[C@H](CCC(=O)O)NC(=O)[C@H](CCCNC(=N)N)NC(=O)[C@H](C)NC(=O)[C@H](C)NC(=O)[C@H](CCC(N)=O)NC(=O)[C@H](CCC(=O)O)NC(=O)[C@H](CCC(=O)O)NC(=O)[C@H](CC(C)C)NC(=O)[C@H](CC(C)C)NC(=O)[C@@H](NC(=O)[C@H](CO)NC(=O)[C@H](Cc1ccc(O)cc1)NC(=O)[C@H](CC(=O)O)NC(=O)[C@H](CO)NC(=O)[C@@H](NC(=O)[C@H](Cc1ccccc1)NC(=O)[C@@H](NC(=O)CNC(=O)[C@H](CCC(=O)O)NC(=O)C(C)(C)NC(=O)[C@@H](N)Cc1ccc(O)cc1)[C@@H](C)O)[C@@H](C)O)[C@@H](C)CC)C(=O)N[C@@H](CCC(=O)O)C(=O)N[C@@H](Cc1c[nH]c2ccccc12)C(=O)N[C@@H](CC(C)C)C(=O)N[C@@H](CC(C)C)C(=O)N[C@@H](C)C(=O)NCC(=O)NCC(=O)N1CCC[C@H]1C(=O)N[C@@H](CO)C(=O)N[C@@H](CCCCNC(=O)[C@@H](N)CCCCNC(=O)[C@@H](N)CCCCNC(=O)CC[C@H](NC(=O)CCCCCCCCCCCCCCCCC(=O)O)C(=O)O)C(=O)NCC(=O)N[C@@H](C)C(=O)N1CCC[C@H]1C(=O)N1CCC[C@H]1C(=O)N1CCC[C@H]1C(=O)N[C@@H](CO)C(=O)O [Compound No. 43] (H-Y[Aib]EGTFTSDYSILLEEQAAREFIEWLLAGGPSK([εLys-εLys-γGlu-C18 diacid])GAPPPS-OH)
AUC/Dose [1]: 21.4 kg·h/L
Cmax/Dose [1]: 0.22 kg/L
